The test deals with JAK1 (Homo sapiens, UniProt P23458). Kind of test: JAK Kinase Assay (JAK1, Caliper EZ Reader, fluoresceinated peptide). The class given is biochemical. The conditions noted are these: ATP 76.5 μM; JAK1 10 nM; 120 minutes at room temperature; read-out: JAK1 inhibition. As to the method:
JAK Kinase Assay 384-well plates in the left foot butoxy measured progress. The final assay volume was 25 μL, 250 nL 100× compounds, 10 μL enzyme mix and 15 μL substrate mix (fluoresceinated peptide and ATP) in assay buffer (20 mM HEPES (pH 7.5), 10 mM MgCl2, […], 0.5 mM EGTA and 2 mM DTT) prepared as test compound. By mixing the JAK1 with substrates and test compounds to start the reaction. There action mixture was incubated for 120 minutes at room temperature, then added 30 μL stop buffer for each sample to terminate the reaction with 50 mM EDTA. After termination of the kinase reaction, the proportion of phosphorylated product was determined as a fraction of total peptide substrate using Caliper EZ Reader II. Inhibition data were calculated by comparison with 100% of the reaction mixture without enzyme inhibition and vehicle-only reaction mixture billion % inhibition compared. The final concentration of reagents in the assays is: ATP, 76.5 μM; JAK1 fluorescent peptide (5-FAM-EEPLYWSFPAKKK-CONH2), 3 μM; JAK1, 10 nM, and DMSO, 1%. Dose response curve were generated to determine the concentration required for IC50 of JAK activity.

Chain of JAK1 (P23458 whole entry, species assumed): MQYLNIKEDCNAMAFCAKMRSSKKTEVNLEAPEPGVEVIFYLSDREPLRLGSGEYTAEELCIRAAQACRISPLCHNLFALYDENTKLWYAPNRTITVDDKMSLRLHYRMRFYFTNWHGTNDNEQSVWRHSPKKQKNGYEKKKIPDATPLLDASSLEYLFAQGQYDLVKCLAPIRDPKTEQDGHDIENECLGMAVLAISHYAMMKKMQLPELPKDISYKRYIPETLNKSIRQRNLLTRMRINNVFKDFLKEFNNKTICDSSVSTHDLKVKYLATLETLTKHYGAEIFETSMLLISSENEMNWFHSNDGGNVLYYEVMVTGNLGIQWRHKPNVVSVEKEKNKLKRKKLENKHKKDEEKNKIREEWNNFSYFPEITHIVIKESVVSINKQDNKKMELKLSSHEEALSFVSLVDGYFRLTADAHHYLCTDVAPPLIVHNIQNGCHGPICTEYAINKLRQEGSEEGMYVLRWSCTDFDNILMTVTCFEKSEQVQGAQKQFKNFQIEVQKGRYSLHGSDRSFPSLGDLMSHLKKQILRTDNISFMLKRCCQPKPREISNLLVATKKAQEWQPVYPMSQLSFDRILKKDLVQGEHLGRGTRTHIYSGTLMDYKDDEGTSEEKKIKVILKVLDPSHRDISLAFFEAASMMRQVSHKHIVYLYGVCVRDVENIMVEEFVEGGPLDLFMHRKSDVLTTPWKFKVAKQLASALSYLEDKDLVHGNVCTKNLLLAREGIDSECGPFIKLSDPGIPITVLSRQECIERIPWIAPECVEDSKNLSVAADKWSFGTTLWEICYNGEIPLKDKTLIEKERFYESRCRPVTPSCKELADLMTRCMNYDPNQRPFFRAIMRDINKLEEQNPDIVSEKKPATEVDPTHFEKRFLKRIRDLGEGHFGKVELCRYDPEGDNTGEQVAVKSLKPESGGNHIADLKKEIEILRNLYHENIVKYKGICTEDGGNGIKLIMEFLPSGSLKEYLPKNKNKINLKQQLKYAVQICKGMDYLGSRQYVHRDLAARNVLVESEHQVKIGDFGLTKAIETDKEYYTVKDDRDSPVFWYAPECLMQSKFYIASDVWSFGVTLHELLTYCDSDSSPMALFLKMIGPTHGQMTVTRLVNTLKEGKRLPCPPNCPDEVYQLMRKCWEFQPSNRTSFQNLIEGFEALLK

For `CN(c1ncnc2[nH]ccc12)C1CCC2(CC1)CCN(C(=O)COc1ccc(C#N)c(F)c1)CC2` [Compound 117, 2-fluoro-4-(2-(9-(methyl(7H-pyrrolo[2,3-d]pyrimidin-4-yl)amino)-3-azaspiro[5.5]undecan-3-yl)-2-oxoethoxy)benzonitrile], the IC50 lay within 10 to 100 nM.

Consider `CN(c1ncnc2[nH]ccc12)C1CCC2(CC1)CCN(C(=O)COc1ccc(C#N)c(F)c1F)CC2` [Compound 118, 2,3-difluoro-4-(2-(9-(methyl(7H-pyrrolo[2,3-d]pyrimidin-4-yl)amino)-3-azaspiro[5.5]undecan-3-yl)-2-oxoethoxy)benzonitrile], for which the IC50 lay in the range of 10 to 100 nM.

Regarding `COc1ccc(NC(=O)N2CCC3(CCC(N(C)c4ncnc5[nH]ccc45)CC3)CC2)cc1` [Compound 119, N-(4-methoxyphenyl)-9-(methyl(7H-pyrrolo[2,3-d]pyrimidin-4-yl)amino)-3-azaspiro[5.5]undecane-3-carboxamide], the IC50 is 10 to 100 nM.

As to `COc1cccc(NC(=O)N2CCC3(CCC(N(C)c4ncnc5[nH]ccc45)CC3)CC2)c1` [Compound 120, N-(3-methoxyphenyl)-9-(methyl(7H-pyrrolo[2,3-d]pyrimidin-4-yl)amino)-3-azaspiro[5.5]undecane-3-carboxamide], the IC50 was at most 10 nM.

On to `CN(c1ncnc2[nH]ccc12)C1CCC2(CC1)CCN(C(=O)Nc1ccc(C#N)cc1)CC2` [Compound 121, N-(4-cyanophenyl)-9-(methyl(7H-pyrrolo[2,3-d]pyrimidin-4-yl)amino)-3-azaspiro[5.5]undecane-3-carboxamide], for which the IC50 is 10 to 100 nM.

Turning to `CN(c1ncnc2[nH]ccc12)C1CCC2(CC1)CCN(C(=O)Nc1cccc(C#N)c1)CC2` [Compound 122, N-(3-cyanophenyl)-9-(methyl(7H-pyrrolo[2,3-d]pyrimidin-4-yl)amino)-3-azaspiro[5.5]undecane-3-carboxamide], the IC50 was at most 10 nM.

With `CN(c1ncnc2[nH]ccc12)C1CCC2(CC1)CCN(C(=O)Nc1cccc(C#N)n1)CC2` [Compound 123, N-(6-cyanopyridin-2-yl)-9-(methyl(7H-pyrrolo[2,3-d]pyrimidin-4-yl)amino)-3-azaspiro[5.5]undecane-3-carboxamide], the IC50 was at most 10 nM.

Regarding `COc1cccc(NC(=O)N2CCC3(CCC(N(C)c4ncnc5[nH]ccc45)CC3)CC2)n1` [Compound 124, N-(6-methoxpyridin-2-yl)-9-(methyl(7H-pyrrolo[2,3-d]pyrimidin-4-yl)amino)-3-azaspiro[5.5]undecane-3-carboxamide], the IC50 was in the range of 10 to 100 nM.

For the molecule `CN(c1ncnc2[nH]ccc12)C1CCC2(CC1)CCN(C(=O)Nc1ccc(C#N)cn1)CC2` [Compound 125, N-(5-cyanopyridin-2-yl)-9-(methyl(7H-pyrrolo[2,3-d]pyrimidin-4-yl)amino)-3-azaspiro[5.5]undecane-3-carboxamide], the IC50 fell in the range of 1000 to 10000 nM.

Take `Cc1cnc(NC(=O)N2CCC3(CCC(N(C)c4ncnc5[nH]ccc45)CC3)CC2)s1` [Compound 126, 9-(methyl(7H-pyrrolo[2,3-d]pyrimidin-4-yl)amino)-N-(5-methylthiazol-2-yl)-3-azaspiro[5.5]undecane-3-carboxamide]: the IC50 was 100 to 1000 nM.

For the molecule `CN(c1ncnc2[nH]ccc12)C1CCC2(CC1)CCN(C(=O)Nc1ccn(C)n1)CC2` [Compound 127, 9-(methyl(7H-pyrrolo[2,3-d]pyrimidin-4-yl)amino)-N-(1-methyl-1H-pyrazol-3-yl)-3-azaspiro[5.5]undecane-3-carboxamide], the IC50 was in the range of 100 to 1000 nM.

For the molecule `Cc1cnc(NC(=O)N2CCC3(CCC(N(C)c4ncnc5[nH]ccc45)CC3)CC2)cn1` [Compound 128, 9-(methyl(7H-pyrrolo[2,3-d]pyrimidin-4-yl)amino)-N-(5-methylpyrazin-2-yl)-3-azaspiro[5.5]undecane-3-carboxamide], the IC50 lay in the range of 1000 to 10000 nM.

Regarding `COc1cnc(NC(=O)N2CCC3(CCC(N(C)c4ncnc5[nH]ccc45)CC3)CC2)cn1` [Compound 129, N-(5-methoxypyrazin-2-yl)-9-(methyl(7H-pyrrolo[2,3-d]pyrimidin-4-yl)amino)-3-azaspiro[5.5]undecane-3-carboxamide], the IC50 was in the range of 10 to 100 nM.

Consider `COc1ccc(NC(=O)N2CCC3(CCC(N(C)c4ncnc5[nH]ccc45)CC3)CC2)nc1` [Compound 130, N-(5-methoxypyridin-2-yl)-9-(methyl(7H-pyrrolo[2,3-d]pyrimidin-4-yl)amino)-3-azaspiro[5.5]undecane-3-carboxamide], for which the IC50 fell in the range of 10 to 100 nM.

Take `CN(c1ncnc2[nH]ccc12)C1CCC2(CC1)CCN(C(=O)Nc1ncc(F)s1)CC2` [Compound 131, N-(5-fluorothiazol-2-yl)-9-(methyl(7H-pyrrolo[2,3-d]pyrimidin-4-yl)amino)-3-azaspiro[5.5]undecane-3-carboxamide]: the IC50 fell in the range of 10 to 100 nM.

For `CN(c1ncnc2[nH]ccc12)C1CCC2(CC1)CCN(C(=O)Nc1ncc(Cl)s1)CC2` [Compound 132, N-(5-chlorothiazol-2-yl)-9-(methyl(7H-pyrrolo[2,3-d]pyrimidin-4-yl)amino)-3-azaspiro[5.5]undecane-3-carboxamide], the IC50 is 100 to 1000 nM.

As to `CN(c1ncnc2[nH]ccc12)C1CCC2(CC1)CCN(C(=O)Nc1ncc(C#N)s1)CC2` [Compound 133, N-(5-cyanothiazol-2-yl)-9-(methyl(7H-pyrrolo[2,3-d]pyrimidin-4-yl)amino)-3-azaspiro[5.5]undecane-3-carboxamide], the IC50 is at most 10 nM.

As for `CN(c1ncnc2[nH]ccc12)C1CCC2(CC1)CCN(C(=O)Nc1nccs1)CC2` [Compound 134, 9-(methyl(7H-pyrrolo[2,3-d]pyrimidin-4-yl)amino)-N-(thiazol-2-yl)-3-azaspiro[5.5]undecane-3-carboxamide], the IC50 was at most 10 nM.

Source of the values: patent US11365188B2, “JAK inhibitors” (priority 2018, dated 2022).
